Here are results for three molecules from publication PMC7070078, “Accelerated identification of serine racemase inhibitor from Centella asiatica” (Scientific Reports, 2020).

Values joined by “and” are separate entries in the source; they are usually repeats but may differ in a detail not shown here. Equal entries are not always repeated.

For series [1], the target named is T1, serine racemase (Homo sapiens, UniProt Q9GZT4).
T1 sequence (Q9GZT4 1-340): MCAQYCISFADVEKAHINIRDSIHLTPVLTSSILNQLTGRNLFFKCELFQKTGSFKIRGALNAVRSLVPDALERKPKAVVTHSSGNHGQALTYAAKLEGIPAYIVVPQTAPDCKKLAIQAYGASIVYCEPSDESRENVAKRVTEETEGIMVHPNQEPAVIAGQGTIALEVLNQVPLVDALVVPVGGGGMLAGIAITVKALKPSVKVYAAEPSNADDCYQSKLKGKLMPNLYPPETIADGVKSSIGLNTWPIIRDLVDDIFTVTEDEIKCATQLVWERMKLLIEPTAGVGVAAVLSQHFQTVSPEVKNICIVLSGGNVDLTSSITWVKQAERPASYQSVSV
Briefly: affinity pull-down from Centella asiatica extract on immobilized SR, identified by LC-MS/MS and FTIR. It is filed as binding. Details: gene SRR; recombinant His-tagged human SR immobilized on Ni-NTA beads.

For series [2], the target named is T1, serine racemase. Briefly: SR activity assay, reference inhibitor (Supplementary Fig. S6). It is filed as biochemical. Details: gene SRR; recombinant His-tagged human SR (1020 bp gene, NM_021947.1), expressed in E. coli.
Series [3] deals with the molecule itself. Briefly: SEC; Ni-NTA purified SR on Sephadex S-200, 1 ml/min, 20 mM Tris-HCl, 150 mM NaCl, 15 uM PLP pH 8.0. A general note: In gel filtration, larger molecules generally elute earlier.

For `C[C@H]1[C@H](C)CC[C@]2(C(=O)O)CC[C@]3(C)C(=CC[C@@H]4[C@@]5(C)C[C@@H](O)[C@H](O)[C@@](C)(CO)[C@@H]5[C@H](O)C[C@]43C)[C@H]12` [madecassic acid], on serine racemase [1], the “affinity pull-down from Centella asiatica extract on immobilized SR, identified” value was “Madecassoside and madecassic acid are the two compounds identified from the CA plant extract binding to SR”.
A word on the IC50: it is the concentration that gives 50% inhibition. Turning to `O=C(O)CC(=O)O` [malonate], the IC50 on serine racemase [2] turned out to be 449 µM.

B1: recombinant human serine racemase (enzyme, UniProt Q9GZT4 1-340, looked up)
chain: MCAQYCISFADVEKAHINIRDSIHLTPVLTSSILNQLTGRNLFFKCELFQKTGSFKIRGALNAVRSLVPDALERKPKAVVTHSSGNHGQALTYAAKLEGIPAYIVVPQTAPDCKKLAIQAYGASIVYCEPSDESRENVAKRVTEETEGIMVHPNQEPAVIAGQGTIALEVLNQVPLVDALVVPVGGGGMLAGIAITVKALKPSVKVYAAEPSNADDCYQSKLKGKLMPNLYPPETIADGVKSSIGLNTWPIIRDLVDDIFTVTEDEIKCATQLVWERMKLLIEPTAGVGVAAVLSQHFQTVSPEVKNICIVLSGGNVDLTSSITWVKQAERPASYQSVSV
notes: serine racemase, human; printed size 37 kDa; no cleavage is described and the purified protein was later held on Ni-NTA beads; PLP was present in the purification buffers; also called SR; recombinant SR
By stoichiometry N is commonly meant the number of molecules, sites or subunits per partner or assembly. As for B1, the “stoichiometry N” value in series [3] is 2 and 4.
